What was measured:
[1] = Total and free drug in blood and liver of Z α1-antitrypsin transgenic mice; format: in vivo, mouse; details: for systemic free drug levels relative to in vitro secretion potency: duration of the dosing period
Method: To explore the PK-PD relationship of Compound 1, Z α1-antitrypsin transgenic animals were dosed with 100, 30 or 10 mg/kg Compound 1 three times a day and on day 6 blood and liver were harvested at 3 hr (˜Cmax) and 8 hr (Cmin) after the dose for the measurement of total and free drug in both tissues. Blood was also harvested for the measurement of monomeric Z α1-antitrypsin in plasma. Total concentrations of Compound 1 were determined by specific LC-MS/MS assay and the free unbound drug in both tissues was determined using equilibrium dialysis and used to derive unbound concentrations.

[2] = In vitro clearance in cryopreserved hepatocytes, human; format: in vitro ADME
[3] = test system: α1-antitrypsin; test: Thermal shift assay (SYPRO Orange); format: biochemical; details: 50 µM Compound 1, SYPRO Orange, versus absence
Method: The native state stability of serpins on addition of compounds was investigated by thermal denaturation in the presence of a 5× concentration of SYPRO Orange dye solution (Life Technologies). A final protein concentration of 0.1 mg/ml and 50 uM compound suspended in PBS was used (Nettleship et al. Methods Mol Biol. 2008; 426:299-318). The samples were heated from 25° C.-95° C. at a rate of 1° C./min in three separate experiments on an Eppendorph Mastercycler Realplex4 quantitative real-time PCR instrument, and the fluorescence in the 605±15 nm bin recorded. The midpoint of denaturation (Tm) is the temperature at which the first derivative of fluorescence intensity against temperature reaches a maximum.
Polymerisation of α1-antitrypsin occurs from a transient intermediate state known as M*, that is readily populated by the Z variant. One of the hallmarks of M* is its recognition by environment-sensitive fluorescent reporter dyes. Thermal shift assays that make use of the dye SYPRO Orange report the stability of the protein native state against heat-induced unfolding. […] Native state stability can also be probed by equilibrium unfolding using chemical denaturants, where a peak in bis-ANS fluorescence corresponds with a maximally populated unfolding intermediate.

Structure (SMILES): CCC[C@@H](NC(=O)c1cccc2c1CC(=O)N2)[C@@H](O)c1cccc(F)c1C [Compound 1, N-[(1S,2R)-1-(3-fluoro-2-methylphenyl)-1-hydroxypentan-2-yl]-2-oxo-2,3-dihydro-1H-indole-4-carboxamide]
- systemic free drug levels relative to in vitro secretion potency ([1]; 10 mg/kg): EC10-EC20
- free drug levels in blood ([1]; 30 mg/kg and 10 mg/kg three times a day, large part of the dosing period): significantly below the cellular EC50 concentrations
- systemic free drug levels relative to in vitro secretion potency ([1]; 30 mg/kg): EC20-EC30
- concentration at 8 h ([1]; Z α1-antitrypsin transgenic, mouse, blood, oral, 100 mg/kg three times a day, day 6, majority of the dosing period, read-out: Cmin levels of the free drug concentration in blood): ≥ 300 nM
- free and total drug concentrations in the liver ([1]; transgenic mice, day 6): equivalent to those in blood
- in vitro clearance in cryopreserved hepatocytes [2]: 0.3 ± 0.05 mL/min/g
- transition midpoint temperature [3]: marked increase
